# Measurements published in PMC12518693, “Potent Fluorescent Probe for Target‐Engagement Studies of Allosteric Pyruvate Kinase Modulators” (Angewandte Chemie (International Ed. in English), 2025).
# Values joined by “and” are separate entries in the source; they are usually repeats but may differ in a detail not shown here. Equal entries are not always repeated.
# Columns and labels:
# PKL [1] = target: T1, PKL (Homo sapiens, UniProt P30613); test: Surface plasmon resonance, PKL
# Procedure: The surface was washed with 10 mM NaOH, 1M NaCl followed by immobilization of protein before subsequent deactivation by 1 M ethanolamine. Immobilization levels were typically 12000-16000 RU. The reference spot was treated as described, omitting the injection of PKL. Compound concentration series was injected over the immobilized protein in increasing concentrations using multi cycle (MCK) or single cycle kinetics (SCK) in running buffer (10 mM HEPES, 150 mM NaCl, 0.05% Tween20, 0.3% DMSO, pH 7.4). A 1:1 Langmuir interaction model is fitted to the experimental traces, enabling determination of kon, koff and Kd.
# PKLNluc and PKLwt = test: Native PAGE in-gel fluorescence, PKLNluc and PKLwt; format: binding, human; conditions: IV 2.5 or 10 µM
# Procedure: (§1) To study the interaction of IV with PKLNluc and its oligomers, native PAGE was performed (Figure 4). Recombinant PKLNluc was incubated for 2 h with IV (0.15–10 µM) or DMSO and loaded onto gels. […] Colloidal blue staining and western blotting with anti‐PKL antibodies confirmed the predominance and identity of the bands (Figure S11a,d). […] PKM2 and PKL exist in equilibrium between oligomeric states, with PKM2 mainly dimeric when unbound.^[ [18] ^] As oligomerization regulates PK function,^[ [11], [54] ^] PKLNluc oligomerization was compared to PKLwt and PKM2 (Figure 4b,c). […] Colloidal blue and anti‐PKM2 blots confirmed PKM2 was mostly monomeric, explaining the lack of binding (Figure S11).
# Recombinant PKLNLuc (4 x 950 ng) was incubated for 1 hour at ambient temperature with different concentrations of compound IV in a total volume of 60 µL Tris-HCl buffer pH 7.4 (50 mM Tris, 100 mM KCl, 10 mM MgCl2, 0.05% Tween 20). PKM2 and PKL recombinants (2 x 950 ng) were also incubated for 1 hour at ambient temperature with different concentrations of the compound IV (0, 2.5 and 10 µM). […]
# (§2) A ChemiDoc imager (Bio-Rad, Alexa 488 filter) was used for fluorescence detection of compound IV bound to the proteins. […] The images of the in-gel fluorescence and luminescence detection were superimposed. […]
# PKM2 [2] = target: T2, PKM2 (Homo sapiens, UniProt P14618); test: Native PAGE in-gel fluorescence, PKM2; format: binding; parameters: made in house
# Procedure: as §1
# Given that FBP levels vary widely in cells,^[ [55], [56], [57] ^] and that it binds PKL with nanomolar affinity, ^[ [58] ^] IV binding to PKLwt was tested with and without FBP.
# Recombinant PKLNLuc (4 x 950 ng) was incubated for 1 hour at ambient temperature with different concentrations of compound IV in a total volume of 60 µL Tris-HCl buffer pH 7.4 (50 mM Tris, 100 mM KCl, 10 mM MgCl2, 0.05% Tween 20). […]
# as §2
# PKL [3] = target: T1, PKL; test: Fluorescence indication titration of tracer IV; format: binding; parameters: co-crystallisation of full-length PKL (including the B-domain); 8xHis (TEV-cleavable) (N, cleaved yes); made in house; host or cells: E. coli T7 Express (NEB), pExp-NHis plasmid
# Procedure: The binding kinetics of IV were further validated with fluorescence titration experiments conducted with recombinant PKL. As previously reported, SBD‐tagged PKL ligands fluorescence upon binding to the allosteric pocket,^[ [43] ^] enabling K D determination by saturation binding. […] Association kinetics were then measured by adding tracer IV to PKL and monitoring fluorescence over time. Data were fit using an exponential association model (Equation S2),^[ [49] ^] and k on was derived from the reciprocal analysis of recorded k obs values. The k off was subsequently calculated (Equation S3).^[ [49] ^] The fluorescent binding experiments were consistent with SPR results, confirming a mid‐nanomolar K D of IV.
# Titrations of tracer IV were performed in the presence and absence of 10 µM FBP. […] PKL was prepared as a 2x working solution at a constant concentration used throughout the titration. Equal volumes (10 µL) of 2x tracer and 2x PKL solutions were mixed (1:1) in 384-well microplates (Corning Black PS, 3820). For each experiment, three 12-point triplicate series were prepared containing either: (1) tracer IV and buffer (no PKL), (2) tracer IV and PKL (0.1 µM), (3) tracer IV and PKL (0.1 µM) and mitapivat (10 µM, competitor control). […] Titration data were analyzed in Origin(Pro) 2023^[8] and fitted to the Hill equation to determine EC₅₀ values.
# PKL [4] = target: T1, PKL; test: HepG2 PKM2 KO cell lysate PKL activity assay; conditions: HepG2 PKM2 KO cells, 48 h, mean ± SE n=3
# Procedure: These predominantly express PKL.
# HepG2 PKM2 KO cells (Synthego) were plated in 6 well plates at cell densities of 2 x 10^5 cells/well and incubated for 24 h at 37 °C and 5% CO2. Compounds were added to the cells in different concentrations (0.1, 1, 10 µM) and the cells were further incubated for 48 h. The control cells received DMSO as vehicle.
# Cells were washed with PBS, lysed on ice with 200 µL/well PK assay buffer. […] Pyruvate kinase (PK) activity of the cell lysates (10 µg total protein) was analyzed by using the PK assay kit from abcam (ab83432) according to manufacturer´s instructions. The PKL activity in the cell lysates treated with the compounds was expressed as a percentage of the PK activity in the vehicle.
# PKM2 [5] = target: T2, PKM2; test: Surface plasmon resonance, PKM2
# HEK293 cells = test: Photostability in HEK293 cells under continuous 488 nm irradiation; format: cell-based; conditions: HEK293, 1 µM, 2 h, continuous 488 nm scanning 10 min
# Procedure: Photostability of tracer IV was subsequently evaluated by treating HEK293 cells with the tracer (1 µM) for 2 h, followed by continuous scanning using 488 nm laser excitation for 10 min.
# Figure S7. Photobleaching curve of compound IV (1 µM) in HEK293 cells under continuous laser irradiation. HEK293 cells were exposed to continuous excitation at 488 nm for 10 minutes using the same imaging settings as applied throughout this study. Integrated fluorescence intensity was recorded over time from an identical region of interest (ROI) across the time-lapse images to assess photostability.
# T1 sequence (P30613 1-543 isoform P30613-2): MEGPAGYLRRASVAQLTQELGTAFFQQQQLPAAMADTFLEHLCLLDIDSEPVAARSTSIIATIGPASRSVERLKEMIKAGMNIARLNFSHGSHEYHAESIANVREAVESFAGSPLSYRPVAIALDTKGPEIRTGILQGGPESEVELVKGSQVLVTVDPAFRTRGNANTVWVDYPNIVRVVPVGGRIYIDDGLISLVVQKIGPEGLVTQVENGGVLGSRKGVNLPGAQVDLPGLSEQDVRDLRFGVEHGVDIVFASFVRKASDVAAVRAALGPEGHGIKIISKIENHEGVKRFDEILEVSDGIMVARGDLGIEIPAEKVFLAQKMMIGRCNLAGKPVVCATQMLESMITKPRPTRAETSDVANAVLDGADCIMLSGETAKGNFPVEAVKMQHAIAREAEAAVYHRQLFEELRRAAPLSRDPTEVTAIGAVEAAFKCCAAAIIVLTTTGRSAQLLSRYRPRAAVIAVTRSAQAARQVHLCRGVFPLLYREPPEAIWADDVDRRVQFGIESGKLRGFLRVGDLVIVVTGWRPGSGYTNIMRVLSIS
# T2 sequence (P14618 whole entry): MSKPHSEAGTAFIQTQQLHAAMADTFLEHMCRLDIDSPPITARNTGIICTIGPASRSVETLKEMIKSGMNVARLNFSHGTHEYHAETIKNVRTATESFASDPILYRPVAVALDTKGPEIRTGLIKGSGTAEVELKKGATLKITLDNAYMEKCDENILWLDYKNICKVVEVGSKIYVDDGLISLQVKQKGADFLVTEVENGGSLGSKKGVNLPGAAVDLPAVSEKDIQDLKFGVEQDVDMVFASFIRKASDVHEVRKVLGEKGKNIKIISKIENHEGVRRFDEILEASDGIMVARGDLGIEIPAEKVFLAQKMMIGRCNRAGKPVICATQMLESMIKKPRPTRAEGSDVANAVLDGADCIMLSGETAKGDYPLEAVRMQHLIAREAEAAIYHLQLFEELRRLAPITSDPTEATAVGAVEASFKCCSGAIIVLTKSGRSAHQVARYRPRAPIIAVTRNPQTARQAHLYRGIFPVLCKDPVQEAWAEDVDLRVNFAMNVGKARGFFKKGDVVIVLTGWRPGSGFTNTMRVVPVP
compound,measurement,setting,value
"CN(C)c1ccc(S(=O)(=O)c2ccc3c(=O)n(Cc4cc[nH]n4)ncc3c2)c2nonc12 [Compound IV, 2-((1H-Pyrazol-3-yl)methyl)-6-((7-(dimethylamino)benzo[c][1,2,5]oxadiazol-4-yl)sulfonyl)phthalazin-1(2H)-one]",Kd,"PKL [1]; K D SPR (PKL), 20 °C, mean ± SE n=3",37 ± 1 nM
same,Kd,"PKL [1]; KD, independent replicates, single cycle kinetics, 1:1 Langmuir fit, Figure S14",38.8 nM and 36.9 nM
same,PKL selectivity over PKM2,PKL [1]; SPR K D PKM2 vs PKL,37 fold
same,koff,PKL [1]; read-out: k off SPR (PKL),0.00617 s⁻¹
same,kon,PKL [1]; read-out: k on SPR (PKL),168000 M⁻¹ s⁻¹
same,in-gel fluorescence labeling of oligomers,PKLNluc and PKLwt,labeling only of the tetramers
same,in-gel fluorescence labeling of oligomers,PKLNluc and PKLwt; listed as LumiPK,exclusively to the tetrameric form of PKL
same,in-gel fluorescence labeling of PKM2,"PKM2 [2]; IV 2.5 or 10 µM with FBP 10 µM, PKM2 tetrameric",no fluorescence
same,in-gel fluorescence labeling of PKM2,"PKM2 [2]; IV 2.5 or 10 µM, without FBP",no fluorescence was detected
same,effect of FBP on binding affinity,"PKL [3]; PKLwt, with and without 10 µM FBP",no significant change in binding affinity
same,koff,"PKL [3]; calculated from K D and k on (Equation S3), read-out: k off fluorescence titration (PKL) (converted)",0.00865 s⁻¹
same,kon,PKL [3]; from k obs values,206000 M⁻¹ s⁻¹
same,Kd,"PKL [3]; recombinant PKL, Hill fit, read-out: K D fluorescence titration (PKL)",42 ± 7 nM
same,PKL activities (% of vehicle) 0.1 µM,PKL [4]; 0.1 µM,108 ± 3 % of vehicle
same,PKL activities (% of vehicle) 1 µM,PKL [4]; 1 µM,146 ± 4 % of vehicle
same,PKL activities (% of vehicle) 10 µM,PKL [4]; 10 µM,242 ± 7 % of vehicle
same,Kd,PKM2 [5],1370 ± 218 nM
same,koff,PKM2 [5]; read-out: k off SPR (PKM2),0.0133 s⁻¹
same,kon,PKM2 [5]; read-out: k on SPR (PKM2),9830 M⁻¹ s⁻¹
same,decrease of fluorescence intensity,HEK293 cells,approximately 6%
